Results: the supplement of paper PMC10331698
± gives the standard deviation of the averaged measurements.

What was measured:
Experiment in all cases: level (log10 ratio to DMSO vehicle control); higher = higher biomarker level / cell amount than vehicle control
Details in all cases: in DMSO
[1] = compound: FC(F)(F)C(F)(F)C(F)(F)C(F)(F)C(F)(F)C(F)(F)CC1CO1 [3-(Perfluorohexyl)-1,2-epoxypropane]
Procedure: (§1)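 BioMAP Diversity Plus panel of 12 human primary cell co-culture systems (3C, 4H, LPS, SAg, BT, BF4T, BE3C, CASM3C, HDF3CGF, KF3CT, MyoF, Mphg). Compounds were added 1 h before stimulation and left for 24 h (MyoF 48 h; BT 72 h for soluble read-outs or 6 d for IgG). Biomarkers were read by ELISA, cytotoxicity by SRB, PBMC viability and proliferation by Alamar Blue. Each well value was divided by the mean of 8 DMSO control wells on the same plate and log10 transformed; duplicate blinded samples were tested at 4 concentrations.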

[2] = compound: FC(F)(F)C(F)(F)C(F)(F)CI [Heptafluorobutyl iodide]
Procedure: as §1

[3] = compound: FC(F)(F)C(F)(F)CNCC(F)(F)C(F)(F)F [Bis(1H,1H-perfluoropropyl)amine]
Procedure: as §1

[4] = compound: NC(=O)C(F)(F)C(F)(F)C(F)(F)C(F)(F)C(N)=O [Octafluoroadipamide]
Procedure: as §1

[5] = compound: NC(=O)C(F)(F)C(F)(F)C(F)(F)C(F)F
Procedure: as §1

[6] = compound: O=C(O)C(F)(F)C(F)(F)C(F)(F)C(F)(F)C(F)(F)C(F)(F)C(F)(F)C(F)(F)C(F)(F)C(F)F [11-H-Perfluoroundecanoic acid]
Procedure: as §1

[7] = compound: O=S(=O)(Cl)C(F)(F)C(F)(F)C(F)(F)C(F)(F)C(F)(F)C(F)(F)C(F)(F)C(F)(F)F [Perfluoro-1-octanesulfonyl chloride]
Procedure: as §1

Row | Test System | level (log10) ([1]; 6700 nM) | level (log10) ([1]; 20000 nM) | level (log10) ([1]; 60000 nM) | level (log10) ([2]; 6700 nM) | level (log10) ([2]; 20000 nM) | level (log10) ([2]; 60000 nM) | level (log10) ([3]; 6700 nM) | level (log10) ([3]; 20000 nM) | level (log10) ([3]; 60000 nM) | level (log10) ([4]; 6700 nM) | level (log10) ([4]; 20000 nM) | level (log10) ([4]; 60000 nM) | level (log10) ([5]; 6700 nM) | level (log10) ([5]; 20000 nM) | level (log10) ([5]; 60000 nM) | level (log10) ([6]; 6700 nM) | level (log10) ([6]; 20000 nM) | level (log10) ([7]; 6700 nM) | level (log10) ([7]; 20000 nM) | level (log10) ([7]; 60000 nM)
1 | BE3C:tPA | 0.0085 ± 0.019 | -0.014 ± 0.014 | 0.0325 ± 0.018 | -0.0095 ± 0.029 | -0.024 ± 0.011 | 0.015 ± 0.044 | -0.0285 ± 0.0021 | -0.0685 ± 0.011 | -0.0225 ± 0.036 | -0.0485 ± 0.00071 | -0.0395 ± 0.037 | -0.011 ± 0.052 | -0.008 ± 0.0028 | -0.0275 ± 0.016 | -0.0235 ± 0.0021 | 0.036 ± 0.058 | -0.338 ± 0.018 | 0.01 ± 0.047 | 0 ± 0.04 | -0.359 ± 0.11
2 | BE3C:uPA | -0.005 ± 0.014 | -0.006 ± 0.0042 | 0.007 ± 0.02 | -0.0015 ± 0.00071 | -0.0105 ± 0.00071 | -0.0025 ± 0.0035 | -0.0155 ± 0.0064 | -0.0185 ± 0.0092 | -0.003 ± 0.013 | -0.0155 ± 0.00071 | -0.0055 ± 0.0078 | 0.0005 ± 0.021 | -0.01 ± 0.0057 | -0.013 ± 0.0085 | -0.0045 ± 0.013 | -0.005 ± 0.02 | -0.211 ± 0.029 | -0.006 ± 0.0028 | 0.0085 ± 0.0064 | -0.133 ± 0.059
3 | CASM3C:CD87/uPAR | -0.0105 ± 0.023 | -0.025 ± 0.013 | -0.0165 ± 0.012 | -0.017 ± 0.0042 | 0.0205 ± 0.029 | -0.0015 ± 0.00071 | -0.0255 ± 0.012 | -0.0155 ± 0.019 | -0.012 ± 0.035 | -0.023 ± 0.051 | -0.0495 ± 0.077 | -0.057 ± 0.041 | -0.0115 ± 0.015 | -0.0035 ± 0.0078 | -0.019 ± 0.017 | -0.0165 ± 0.011 | -0.025 ± 0.0071 | -0.0235 ± 0.054 | -0.0285 ± 0.054 | -0.0155 ± 0.069
4 | CASM3C:CD141/Thrombomodulin | 0.011 ± 0.011 | 0.005 ± 0.013 | 0.0225 ± 0.029 | -0.025 ± 0.0099 | -0.039 ± 0.0085 | -0.0125 ± 0.013 | 0.019 ± 0.011 | 0.007 ± 0.0099 | 0.001 ± 0.02 | 0.0225 ± 0.0064 | 0.0095 ± 0.019 | 0.007 ± 0.02 | -0.008 ± 0.0042 | 0.0085 ± 0.025 | 0.0085 ± 0.0092 | -0.015 ± 0.021 | -0.0085 ± 0.019 | -0.019 ± 0.011 | 0.012 ± 0.017 | 0.03 ± 0.0071
5 | CASM3C:CXCL8/IL-8 | 0.011 ± 0.016 | 0.011 ± 0.0099 | 0.0295 ± 0.025 | 0.0015 ± 0.012 | -0.014 ± 0.014 | -0.001 ± 0.014 | -0.0065 ± 0.0092 | -0.005 ± 0.014 | 0.003 ± 0.027 | -0.007 ± 0.035 | 0.005 ± 0.0028 | -0.005 ± 0.031 | -0.006 | -0.006 | 0.004 ± 0.031 | -0.001 ± 0.0057 | -0.011 ± 0.0014 | -0.021 ± 0.0057 | -0.0125 ± 0.013 | 0.015 ± 0.035
6 | CASM3C:CXCL9/MIG | -0.014 ± 0.025 | -0.007 ± 0.016 | 0.0005 ± 0.026 | -0.0295 ± 0.0021 | -0.0225 ± 0.0021 | -0.002 ± 0.038 | 0.0175 ± 0.025 | 0.006 ± 0.0014 | -0.0065 ± 0.069 | 0.0115 ± 0.053 | -0.004 ± 0.014 | 0.0215 ± 0.037 | -0.0075 ± 0.021 | -0.0055 ± 0.0035 | 0.0005 ± 0.0078 | 0 ± 0.0071 | -0.009 ± 0.018 | 0.0015 ± 0.052 | 0.013 ± 0.035 | 0.0735 ± 0.033
7 | CASM3C:IL-6 | -0.0375 ± 0.025 | -0.0335 ± 0.012 | 0.001 ± 0.089 | -0.01 ± 0.011 | -0.016 ± 0.0014 | 0.009 ± 0.031 | -0.0335 ± 0.047 | -0.035 ± 0.02 | 0.0065 ± 0.023 | -0.0145 ± 0.0064 | -0.0185 ± 0.0035 | 0 ± 0.051 | -0.0315 ± 0.0064 | -0.0165 ± 0.012 | 0.017 ± 0.05 | -0.027 ± 0.014 | -0.0395 ± 0.03 | -0.009 ± 0.03 | -0.024 ± 0.02 | 0.015 ± 0.044
